Key:
Assay type in all cases: cell-based
CAT1 [1] = target: T1, CAT1 (Homo sapiens, UniProt P30825); assay: inhibition of [3H]SDMA uptake in HEK-CAT1 cells at […]
T1 construct: gene SLC7A1; HEK293 cells stably expressing human CAT1

OATP4C1 [2] = target: T2, OATP4C1 (Homo sapiens, UniProt Q6ZQN7); assay: inhibition of [3H]SDMA uptake in HEK-OATP4C1 cells
T2 construct: gene SLCO4C1; HEK293 cells stably expressing human OATP4C1
T2 sequence (Q6ZQN7 1-724): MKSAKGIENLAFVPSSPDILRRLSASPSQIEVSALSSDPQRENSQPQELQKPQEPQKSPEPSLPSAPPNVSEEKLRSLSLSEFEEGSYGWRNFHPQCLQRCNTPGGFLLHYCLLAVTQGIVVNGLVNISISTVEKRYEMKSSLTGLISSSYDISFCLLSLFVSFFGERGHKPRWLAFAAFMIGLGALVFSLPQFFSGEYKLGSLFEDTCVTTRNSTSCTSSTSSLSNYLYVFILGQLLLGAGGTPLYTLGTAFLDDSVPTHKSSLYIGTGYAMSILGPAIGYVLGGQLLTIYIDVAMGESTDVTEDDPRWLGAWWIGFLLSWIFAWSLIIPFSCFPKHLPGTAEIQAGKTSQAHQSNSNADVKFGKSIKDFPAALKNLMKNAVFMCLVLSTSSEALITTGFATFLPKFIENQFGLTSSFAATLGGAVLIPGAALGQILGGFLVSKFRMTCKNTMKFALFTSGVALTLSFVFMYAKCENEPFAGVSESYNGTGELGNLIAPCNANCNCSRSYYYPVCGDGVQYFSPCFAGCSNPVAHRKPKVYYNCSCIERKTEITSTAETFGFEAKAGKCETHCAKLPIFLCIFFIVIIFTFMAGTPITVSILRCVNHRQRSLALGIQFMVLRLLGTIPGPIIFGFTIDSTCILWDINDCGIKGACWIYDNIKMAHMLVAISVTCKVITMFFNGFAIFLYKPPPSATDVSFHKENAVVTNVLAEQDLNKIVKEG

CAT1 [3] = target: T1, CAT1; assay: inhibition of [3H]SDMA uptake in HEK-CAT1 cells
OATP4C1 [4] = target: T2, OATP4C1; assay: inhibition of [3H]SDMA uptake in HEK-OATP4C1 cells at […]
MATE1 = target: T3, MATE1 (Homo sapiens, UniProt Q96FL8); assay: [3H]SDMA uptake kinetics (Km) in HEK-MATE1 cells; conditions: read-out: Km in μM
T3 construct: gene SLC47A1; HEK293 cells stably expressing human MATE1
T3 sequence (Q96FL8 1-570): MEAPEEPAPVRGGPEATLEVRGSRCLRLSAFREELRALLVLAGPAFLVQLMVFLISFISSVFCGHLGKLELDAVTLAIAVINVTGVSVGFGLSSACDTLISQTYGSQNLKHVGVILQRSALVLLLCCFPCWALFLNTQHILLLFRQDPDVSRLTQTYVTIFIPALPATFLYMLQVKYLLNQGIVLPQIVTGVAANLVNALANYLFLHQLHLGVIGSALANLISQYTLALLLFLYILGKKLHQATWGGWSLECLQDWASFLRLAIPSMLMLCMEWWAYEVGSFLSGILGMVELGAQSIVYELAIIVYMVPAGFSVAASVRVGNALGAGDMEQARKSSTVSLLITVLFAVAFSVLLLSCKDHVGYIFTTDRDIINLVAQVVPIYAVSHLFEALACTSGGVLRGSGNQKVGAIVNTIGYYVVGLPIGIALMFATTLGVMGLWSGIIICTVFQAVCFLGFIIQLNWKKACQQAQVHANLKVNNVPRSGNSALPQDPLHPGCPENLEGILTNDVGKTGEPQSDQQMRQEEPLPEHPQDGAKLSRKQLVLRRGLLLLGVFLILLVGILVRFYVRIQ

OCT2 = target: T4, OCT2 (Homo sapiens, UniProt O15244); assay: [3H]SDMA uptake in HEK-OCT2 cells; no saturation up to […]
T4 construct: gene SLC22A2; HEK293 cells stably expressing human OCT2
T4 sequence (O15244 1-555): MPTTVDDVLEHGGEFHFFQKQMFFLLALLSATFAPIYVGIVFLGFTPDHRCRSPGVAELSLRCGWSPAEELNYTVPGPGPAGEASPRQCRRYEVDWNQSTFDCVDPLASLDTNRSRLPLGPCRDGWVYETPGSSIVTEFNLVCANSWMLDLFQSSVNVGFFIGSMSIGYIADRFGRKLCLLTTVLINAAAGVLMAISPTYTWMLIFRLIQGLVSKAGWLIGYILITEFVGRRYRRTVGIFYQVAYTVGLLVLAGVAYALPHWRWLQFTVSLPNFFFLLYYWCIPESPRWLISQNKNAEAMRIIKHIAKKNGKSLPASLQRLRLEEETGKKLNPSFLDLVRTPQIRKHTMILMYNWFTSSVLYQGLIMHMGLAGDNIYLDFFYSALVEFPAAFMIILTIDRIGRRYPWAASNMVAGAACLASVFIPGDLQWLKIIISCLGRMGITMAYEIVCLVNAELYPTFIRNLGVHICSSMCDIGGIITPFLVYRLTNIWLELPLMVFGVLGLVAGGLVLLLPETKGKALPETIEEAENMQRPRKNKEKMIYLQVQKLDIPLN

T1 sequence (P30825 whole entry): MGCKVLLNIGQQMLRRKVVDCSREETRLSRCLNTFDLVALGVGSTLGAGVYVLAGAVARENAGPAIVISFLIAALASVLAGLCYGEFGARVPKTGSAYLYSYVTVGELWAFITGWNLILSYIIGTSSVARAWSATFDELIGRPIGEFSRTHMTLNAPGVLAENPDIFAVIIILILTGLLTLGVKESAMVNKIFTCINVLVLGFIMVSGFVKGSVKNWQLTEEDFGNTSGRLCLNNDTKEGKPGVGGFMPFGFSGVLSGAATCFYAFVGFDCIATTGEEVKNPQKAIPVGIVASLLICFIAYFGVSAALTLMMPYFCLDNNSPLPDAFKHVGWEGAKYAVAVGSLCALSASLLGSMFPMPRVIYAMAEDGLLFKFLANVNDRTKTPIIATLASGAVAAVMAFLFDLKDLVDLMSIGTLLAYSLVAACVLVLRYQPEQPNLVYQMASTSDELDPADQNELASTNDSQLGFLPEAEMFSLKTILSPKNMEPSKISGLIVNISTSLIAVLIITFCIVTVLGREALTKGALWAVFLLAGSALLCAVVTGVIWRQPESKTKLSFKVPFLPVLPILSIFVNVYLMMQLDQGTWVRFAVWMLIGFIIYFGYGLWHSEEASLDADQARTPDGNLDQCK

SMILES: CN(C)C(=N)NCCC[C@H](N)C(=O)O [ADMA]
- inhibition of [3H]SDMA uptake in HEK-CAT1 cells at 50 and 500 μM (CAT1 [1]): all influenced SDMA transport, thereby competing with SDMA for CAT1- or OATP4C1-mediated uptake

SMILES: N=C(N)NCCC[C@H](N)C(=O)O [L-arginine]
- IC50 (OATP4C1 [2]): 28.8 µM
- IC50 (CAT1 [3]): 280 µM

SMILES: N=C(N)NCCCC[C@H](N)C(=O)O [L-homoarginine]
- inhibition of [3H]SDMA uptake in HEK-OATP4C1 cells at 50 and 500 μM (OATP4C1 [4]): all influenced SDMA transport, thereby competing with SDMA for CAT1- or OATP4C1-mediated uptake

SMILES: CN=C(NC)NCCC[C@H](N)C(=O)O [symmetric dimethylarginine]
- Km (MATE1): 1970 µM
- [3H]SDMA uptake in HEK-OCT2 cells; no saturation up to 4 000 μM (OCT2): significant uptake was observed for CAT1-, OATP4C1-, OCT2-, and MATE1-mediated transport
